Experiments:
[1] = system: degenerative myoclonus epilepsy; assay: Clinical Case 1: DN-1417 treatment of epileptic patient; assay type: in vivo, human
Description: They were given DN-1417, 2 mg. i.m. at 10:00 A.M. every day for 2 weeks concomitantly with the prior antiepileptics.

[2] = Blood concentrations of antiepileptics in Case 3
Description: The treatment consisted of a multiple drug therapy using phenytoin, phenobarbital, sodium valproate, nitrazepam and clonazepam.

Lennox's syndrome = assay: Clinical Case 3: DN-1417 treatment of epileptic patient; assay type: in vivo, human
Description: During the period from July 22 to Aug. 4, 1981, 1 mg of DN-1417 was administered intramuscularly once daily for 14 consecutive days, concomitantly with the antipileptics so far employed.

West's syndrome = assay: Clinical Case 6: DN-1417 treatment of epileptic patient; assay type: in vivo, human; details: for Frequency of seizure occurrences: before DN-1417
Description: Nitrazepam in dosage of 1.5 mg./day was administered in three divided doses to show less frequency of the seizure occurrences (from 10 times a day to 6-7 times a day). […] The drowsiness was fairly ameliorated but the frequency of the seizure occurrences was not reduced (10 times a day).
DN-1417 in dosage of 0.03 mg./kg. (0.3 mg./day) was intravenously given for 22 days in addition to the treatment with nitrazepam in dosage of 0.6 mg./day.

[3] = system: epilepsy, tuberous sclerosis (tonic convulsion and atypical absence); assay: Clinical Case 2: DN-1417 treatment of epileptic patient; assay type: in vivo, human
Description: In conjunction with the antiepileptic drugs so far used, DN-1417 was administered intramuscularly in doses of 0.5 mg. for 10 days and, then, in doses of 1 mg. for 4 days.

temporal lobe epilepsy = assay: Clinical Case 5: DN-1417 treatment of epileptic patient; assay type: in vivo, human
Description: In addition to the prior medication of antiepileptics (10 tablets of HYDANTOL F® each containing 25 mg. phenytoin, 8 mg. phenobarbital and 17 mg. caffeine and sodium benzoate, 1 g. of carbamazepine, 0.09 g. of phenobarbital and 250 mg. of actazolamide), DN-1417 was intramuscularly administered in dose of 1 mg./day for 2 weeks. […] From the 7th day of the DN-1417 treatment they began to explain their conditions as, "The time to get off the bed from awaking has been shortened." and "Became easy to get to the next action in doing anything."Improvement of such psychic symptoms was maintained for a week after the end of the DN-1417 treatment. Automatism occurred a week after the end of the DN-1417 treatment and impaired-consciousness seizure occurred twice in the 3rd week of post-treatment.

[4] = system: epilepsy (tonic convulsion, tonoclonic convulsion and clonic convulsion); assay: Clinical Case 4: DN-1417 treatment of epileptic patient; assay type: in vivo, human
Description: During the period from July 22 to Aug. 4, 1981, DN-1417 was administered intramuscularly in daily doses of 1 mg. for 14 days, together with the antiepileptics so far employed.

## O=C1CN=C(c2ccccc2Cl)c2cc([N+](=O)[O-])ccc2N1 [clonazepam, reference compound]
[1]; clonazepam 2 mg daily combined with other antiepileptics, before DN-1417
  Myoclonus at rest: almost complete disappearance

## O=C1NC(=O)C(c2ccccc2)(c2ccccc2)N1 [phenytoin]
[2]; in vivo
  Blood concentration: 9.0 µg/mL

## CCC1(c2ccccc2)C(=O)NC(=O)NC1=O [phenobarbital]
[2]; Case 3, after 2 weeks of DN-1417 1 mg i.m. daily with the antiepileptics
  Blood concentration: 24.6 µg/mL
[2]; Case 3, multiple drug therapy before DN-1417
  Blood concentration: 18.9 µg/mL

## ACTH: ACTH therapy; adrenocorticotropic hormones (SYSMEHFRWGKPVGKKRRPVKVYPNGAEDESAEAFPLEF; Corticotropin; UniProt P01189 138-176, looked up) [reference compound]
Lennox's syndrome; before DN-1417
  Effect of ACTH therapy: with no avail

## NC(=O)[C@@H]1CCCN1C(=O)[C@H](Cc1c[nH]cn1)NC(=O)[C@@H]1CCC(=O)O1.O=C(O)CC(O)(CC(=O)O)C(=O)O [DN-1417, (S)-γ-butyrolactone-γ-carbonyl-L-histidyl-L-prolinamide citrate]
West's syndrome
  Overall clinical effect: effective for West's syndrome
West's syndrome; 2 weeks after the DN-1417 treatment
  EEG: did not show hypsarhythmia
West's syndrome; after a week
  Drowsiness: drowsiness due to nitrazepam was reduced
  EEG: remained unchanged
West's syndrome; from the 2nd week of treatment, same at the 3rd week
  Seizure frequency: 5-6 times a day
West's syndrome; whole course
  Side effects: No side effects
[1]
  Time after withdrawal until photomyoclonic response reappeared: about 80 days
  Type of action from EEG changes and clinical symptoms: antimyoclonic action though not a definite anticonvulsive action
[1]; 2 mg daily for 2 weeks
  Continuation of clinical improvement after withdrawal of the drug: about 1 month
  Side effect: without any side effect
[1]; 2 mg i.m. daily for 2 weeks with prior antiepileptics
  Overall clinical effect: effective in improving myoclonus, cerebellar symptoms, psychic activity and EEG
[1]; 3rd day of treatment
  EEG: No improvement
[1]; after 2nd EEG at day 8 of treatment
  Persistence of marked EEG improvements: about 50 days
[1]; day 8 of treatment
  EEG response to photic stimulation: entirely normal
Lennox's syndrome
  Overall clinical effect: decreased incidence of clinical episodes, improved EEG findings and remarkable improvements in daily life
  Side effect: no side effect
Lennox's syndrome; 1 mg i.m. once daily for 14 days with prior antiepileptics, after one week
  Clinical episodes: no clinical episode
Lennox's syndrome; after 2 weeks
  Clinical episodes: one episode of atypical absence
  EEG: no polyspike-and-slow wave complex and only a decreased sharp-and-slow wave complex
Lennox's syndrome; after one week
  EEG: decrease in polyspike-and-slow wave complex but an increase in sharp-and-slow wave complex
Lennox's syndrome; one week after withdrawal
  Clinical episodes: No clinical episode
  EEG: less bursts, with an increased regularity of basal wave
[3]
  Overall clinical effect: remarkable improvements in daily activity and improvements in clinical episode and EEG
  Side effect: no side effect
[3]; after 2 weeks
  Clinical episodes: no clinical episodes
[3]; after 2 weeks, EEG at sleep
  EEG: frequency of paroxymal patterns was halved
[3]; i.m. 0.5 mg for 10 days then 1 mg for 4 days with prior antiepileptics, after one week
  Clinical episodes: No clinical episodes
Temporal lobe epilepsy
  EEG findings: No noteworthy change
  Overall clinical effect: effective in this patient
Temporal lobe epilepsy; 1 mg/day i.m. for 2 weeks with prior antiepileptics
  Seizures during the treatment: autonomic seizure occurred once
Temporal lobe epilepsy; during DN-1417 treatment
  Psychic symptoms such as decrease of volition: improved
[4]
  Activities of daily life and mental condition (summary): A remarkable improvement
  Clinical seizures (summary): No change or a slight improvement
  EEG (summary): A moderate improvement
  Overall evaluation: moderate improvement
  Side effect: no apparent side effect
[4]; 1 mg i.m. daily for 14 days with prior antiepileptics, after one week
  Epileptic seizures: No epileptic seizure
[4]; after 2 weeks
  EEG: fair improvement in continuity, with a regularity
  Epileptic seizures: No epileptic seizure
[4]; after one week
  EEG: remarkable improvement
[4]; three weeks after withdrawal
  Seizures after withdrawal: Clonic convulsion appeared on day 6 after withdrawal

## CCCC(CCC)C(=O)[O-].[Na+] [sodium valproate, reference compound]
[1]; after about 3 months on sodium valproate, before DN-1417
  Convulsions: convulsions were inhibited
[1]; on sodium valproate, before DN-1417
  Myoclonus: remained prominent
[2]; in vivo
  Blood concentration: 36 µg/mL

## O=C1CN=C(c2ccccc2)c2cc([N+](=O)[O-])ccc2N1 [Nitrazepam, nitrazepam, reference compound]
West's syndrome; nitrazepam 1.5 mg/day
  Adverse effects: Severe drowsiness and stridor
West's syndrome; nitrazepam 1.5 mg/day in three divided doses
  Frequency of seizure occurrences: 6-7 times a day
West's syndrome; nitrazepam reduced to 0.6 mg/day
  Frequency of seizure occurrences: 10 times a day

— US4421745A, “Antiepileptics” (Takeda Chemical Industries, Ltd., priority 1981, dated 1983)
